Source: patent US9249112B2, “Solid forms of a transthyretin dissociation inhibitor” (PFIZER INC., priority 2011, dated 2016)

What was measured:
Type in all cases: physicochemical
[1] = hygroscopicity of the solid form; conditions: crystalline form, anhydrous mono-meglumine salt
[2] = gel formation on contact with aqueous vehicles; conditions: compound alone, on contact with aqueous vehicles such as water, phosphate buffer and hydrochloric acid
From the text: Without wishing to be bound by theory, it appears that such gel formation, upon oral administration, can hinder dissolution and/or bioavailability of such compounds, leading to, for example, stomach compaction and non-proportional plasma levels of drug in the subject as compared to the dose administered. […] Consequently, the pharmaceutical compositions herein are also contemplated for use in or further combination with any conventional formulation or route or method of administration where contact with water or other aqueous vehicles may occur, e.g., contact with blood or other body fluids as in various forms of parenteral administration (e.g., contact with blood in intravenous administration, implants, and the like), contact with mucous membranes (e.g., suppositories via vaginal or rectal administration, dry powder aerosols for pulmonary administration, transdermal patches or lozenges applied to mucous membranes, and the like). In such routes of administration, the benefits of the certain pharmaceutical compositions, such as resistance to gel formation, greater dissolution and bioavailability, dose proportionality, stability to storage, or the like may be beneficial.

[3] = solubility in unbuffered water; conditions: free acid

| Molecule | hygroscopicity [1] | gel formation [2] | solubility [3] [µg/mL] |
| --- | --- | --- | --- |
| 6-carboxy-2-(3,5-dichlorophenyl)-benzoxazole meglumine [Compound 1] | non-hygroscopic |  |  |
| O=C(O)c1ccc2nc(-c3cc(Cl)cc(Cl)c3)oc2c1 [free acid, 6-carboxy-2-(3,5-dichlorophenyl)-benzoxazole] |  | can form a gel | < 11 |
